In patent US8796296B2, “Aminopyrimidine derivatives as LRRK2 modulators” (Genentech, Inc., priority 2011, dated 2014):

target: LRRK2 (Homo sapiens (Human), UniProt Q5S007, G2019S); test: In Vitro LRRK2 LabChip Assay (LRRK2 Ki); type: biochemical
Protocol: In Vitro LRRK2 LabChip Assay
This assay was used to determine a compound's potency in inhibiting activity of LRRK2 by determining, Kiapp, IC50, or percent inhibition values. In a polypropylene plate, LRRK2, fluorescently-labeled peptide substrate, ATP and test compound were incubated together. Using a LabChip 3000 (Caliper Life Sciences), after the reaction the substrate was separated by capillary electrophoresis into two populations: phosphorylated and unphosphorylated. The relative amounts of each were quantitated by fluorescence intensity. LRRK2 Ki was determined according to the equation: Y=V0*(1−((x+Ki*(1+S/Km)+Et)/(2*Et)−(((x+Ki*(1+S/Km)+Et)^2−(4*Et*x))^0.5)/(2*Et))). Ki values in Table 4 and elsewhere herein are shown in μM.
Assay conditions and materials used were as follows:
LRRK2 Wild type in 5 mM MgCl2: 15 nM (Invitrogen lot #500607F)
Kinase reaction time: 2 hours
Wild type in 5 mM MgCl2: 80 μM
Kinase: LRRK2 G2019S (Invitrogen cat #PV4882). • LRRK2 Wild type (Invitrogen cat #PV4874).
Substrate: 5FAM-GAGRLGRDKYKTLRQIRQ-CONH2
Complete Reaction Buffer: H2O/25 mM Tris, pH 8.0/5 mM MgCl2/2 mM DTT/0.01% Triton X-100.
For serial dilutions, 34.6 μl DMSO was added to columns 3-24. For the assay controls, 37.5 μl DMSO was added to columns 1 and 2 of rows A and P. a,d and 50 μl 25 μM G-028831 (Staurosporine) was added to columns 1 and 2, row B. For the samples: to start at 100 μM, 37.5 μl DMSO was to columns 1 and 2, then 12.5 μl 10 mM compound; to start at 10 μM, 78 μl DMSO was added to columns 1 & 2, then 2 μl 10 mM compound; and to start at 1 μM, 25 μM compound (2 μl 10 mM cmpd+798 μl DMSO) was added to empty columns 1 and 2. A Precision instrument was used to perform 1:3.16 serial dilutions (“PLK_BM_serial_halflog”).
ATP was diluted to 282.1 μM in Complete Kinase Buffer (final concentration was 130 μM).
In Complete Reaction Buffer, substrate was diluted to 4 μM. Equal volumes of Complete Reaction Buffer and 4 μM substrate were combined to obtain the blank. Equal volumes of Complete Reaction Buffer and 4 μM substrate were combined and to the combined solution was added 2× final LRRK2 concentration.
To a 50 μl polypropylene plate, 5 μl/well buffer/substrate was added by hand to Blank wells. A Biomek FX was used to start the kinase reaction (“PLK SAR 23 ATP”). The following were added to the appropriate wells:
The plate was incubated for 2 hours in the dark. Biomek FX was used to stop the kinase reaction (“PLK Stop”), and 10 μl/well Stop solution was added to the Assay Plate.
Results were read on the LabChip 3000.
The LabChip 3000 was run using the job “LRRK2 IC50” with the following job settings: […]

Sequence of LRRK2 (Q5S007 whole entry G2019S): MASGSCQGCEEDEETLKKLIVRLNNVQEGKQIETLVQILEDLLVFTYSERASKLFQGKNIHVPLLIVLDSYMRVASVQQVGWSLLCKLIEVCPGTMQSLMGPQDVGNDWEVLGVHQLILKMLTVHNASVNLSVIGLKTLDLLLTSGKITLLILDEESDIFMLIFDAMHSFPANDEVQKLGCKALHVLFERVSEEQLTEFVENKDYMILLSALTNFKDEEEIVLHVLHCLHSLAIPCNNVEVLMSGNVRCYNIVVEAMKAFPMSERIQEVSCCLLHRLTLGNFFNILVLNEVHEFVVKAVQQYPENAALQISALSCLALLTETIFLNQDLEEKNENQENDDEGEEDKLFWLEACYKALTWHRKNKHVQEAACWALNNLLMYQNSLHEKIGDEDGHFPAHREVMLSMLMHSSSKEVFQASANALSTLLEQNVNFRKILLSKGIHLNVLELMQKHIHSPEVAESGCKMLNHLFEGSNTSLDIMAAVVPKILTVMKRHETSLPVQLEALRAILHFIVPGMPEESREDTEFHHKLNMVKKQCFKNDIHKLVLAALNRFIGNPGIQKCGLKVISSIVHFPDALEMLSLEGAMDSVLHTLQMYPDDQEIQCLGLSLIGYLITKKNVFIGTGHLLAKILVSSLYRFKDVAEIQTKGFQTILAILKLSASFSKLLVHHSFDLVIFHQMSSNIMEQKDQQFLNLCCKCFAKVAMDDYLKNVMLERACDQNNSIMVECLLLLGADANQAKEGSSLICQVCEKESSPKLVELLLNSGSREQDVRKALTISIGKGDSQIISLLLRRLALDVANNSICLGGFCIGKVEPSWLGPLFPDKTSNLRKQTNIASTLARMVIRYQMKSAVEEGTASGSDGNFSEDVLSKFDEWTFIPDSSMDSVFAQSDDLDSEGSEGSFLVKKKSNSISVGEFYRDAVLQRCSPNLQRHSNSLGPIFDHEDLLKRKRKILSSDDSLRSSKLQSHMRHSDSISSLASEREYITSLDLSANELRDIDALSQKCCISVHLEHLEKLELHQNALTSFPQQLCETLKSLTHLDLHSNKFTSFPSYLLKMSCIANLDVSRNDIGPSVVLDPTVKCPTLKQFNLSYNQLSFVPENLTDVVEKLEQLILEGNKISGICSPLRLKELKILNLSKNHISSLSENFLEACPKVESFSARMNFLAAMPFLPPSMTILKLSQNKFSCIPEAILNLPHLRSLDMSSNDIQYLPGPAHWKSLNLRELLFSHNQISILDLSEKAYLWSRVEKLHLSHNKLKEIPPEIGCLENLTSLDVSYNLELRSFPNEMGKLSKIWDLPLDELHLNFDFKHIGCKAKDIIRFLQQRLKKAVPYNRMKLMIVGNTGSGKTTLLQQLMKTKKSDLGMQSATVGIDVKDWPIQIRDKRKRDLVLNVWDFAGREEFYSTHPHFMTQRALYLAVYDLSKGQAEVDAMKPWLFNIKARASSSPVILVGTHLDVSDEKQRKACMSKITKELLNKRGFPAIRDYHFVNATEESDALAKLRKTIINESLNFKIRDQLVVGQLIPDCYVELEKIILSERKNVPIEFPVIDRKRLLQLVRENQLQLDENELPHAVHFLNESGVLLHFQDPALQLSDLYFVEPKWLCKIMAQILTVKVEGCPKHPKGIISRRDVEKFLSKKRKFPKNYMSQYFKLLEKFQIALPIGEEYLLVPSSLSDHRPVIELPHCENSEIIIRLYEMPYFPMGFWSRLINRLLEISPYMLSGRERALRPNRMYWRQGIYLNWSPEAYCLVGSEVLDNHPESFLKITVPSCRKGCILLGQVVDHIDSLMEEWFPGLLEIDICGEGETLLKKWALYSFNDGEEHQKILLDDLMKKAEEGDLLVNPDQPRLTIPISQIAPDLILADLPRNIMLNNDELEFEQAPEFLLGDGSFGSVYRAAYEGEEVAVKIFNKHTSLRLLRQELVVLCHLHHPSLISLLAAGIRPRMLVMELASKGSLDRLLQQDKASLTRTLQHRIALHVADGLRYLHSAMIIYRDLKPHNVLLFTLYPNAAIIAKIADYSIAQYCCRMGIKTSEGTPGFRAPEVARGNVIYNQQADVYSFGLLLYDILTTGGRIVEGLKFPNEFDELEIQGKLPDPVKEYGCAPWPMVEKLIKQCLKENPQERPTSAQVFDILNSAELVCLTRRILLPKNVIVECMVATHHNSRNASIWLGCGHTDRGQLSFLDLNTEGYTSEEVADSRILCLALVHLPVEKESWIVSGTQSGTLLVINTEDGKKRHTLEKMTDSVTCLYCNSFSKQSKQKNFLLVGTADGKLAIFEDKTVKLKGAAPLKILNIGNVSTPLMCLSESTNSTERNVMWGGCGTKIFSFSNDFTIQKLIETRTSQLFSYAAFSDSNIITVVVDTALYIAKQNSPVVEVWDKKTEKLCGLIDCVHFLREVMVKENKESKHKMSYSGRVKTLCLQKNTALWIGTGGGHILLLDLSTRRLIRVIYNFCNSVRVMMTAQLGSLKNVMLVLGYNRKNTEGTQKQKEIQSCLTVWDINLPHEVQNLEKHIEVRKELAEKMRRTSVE

Structure (SMILES) | Ki [nM]
CNc1nc(Nc2ccc3c(c2OC)CN(C)C3=O)ncc1C(F)(F)F [Compound 11, 4-methoxy-2-methyl-5-(4-(methylamino)-5-(trifluoromethyl)pyrimidin-2-ylamino)isoindolin-1-one] | 1
CNc1nc(Nc2cc3c(cc2Cl)C(=O)N(C)C3)ncc1Cl [Compound 8, 6-chloro-5-(5-chloro-4-(methylamino)pyrimidin-2-ylamino)-2-methylisoindolin-1-one] | 3
CCNc1nc(Nc2cc3c(cc2OC)C(=O)N(CC(C)(C)O)C3)ncc1C(F)(F)F [Compound 24, 5-(4-(ethylamino)-5-(trifluoromethyl)pyrimidin-2-ylamino)-2-(2-hydroxy-2-methylpropyl)-6-methoxyisoindolin-1-one] | 3
